Source: US8106055B2, “Substituted amide compounds” (Gruenenthal GmbH, priority 2007, dated 2012)

Assays:
human μ opiate receptor = target: T1, human μ opiate receptor (Homo sapiens, UniProt P35372); assay: Affinity for the human μ opiate receptor ([3H]-naloxone displacement, CHO-K1 receptor membrane preparation, SPA); assay type: binding; conditions: test concentration of 1 μM
T1 construct: purchased PerkinElmer Life Sciences, Zaventem, Belgium RB-HOM; host or cells: CHO-K1 cells (membrane preparation)
Outline: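 CHO-K1 membranes expressing human μ receptor incubated 90 min at room temperature with 1 nmol/l [3H]-naloxone and WGA-SPA beads in 50 mmol/l Tris-HCl, 0.06% BSA; 100 μmol/l naloxone defines non-specific binding. Values are % inhibition of specific binding at 1 μM; IC50 converted to Ki by Cheng-Prusoff.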

[1] = target: T2, serotonin (5-HT) reuptake (Rattus norvegicus, UniProt P31652); assay: Inhibition of serotonin (5HT) reuptake in synaptosomes from rat brain; assay type: biochemical; conditions: test concentration of 10 μM
T2 construct: synaptosomes are freshly isolated from areas of the rat brain; from tissue; host or cells: rat brain synaptosomes (P2 fraction)
Outline: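 Freshly isolated rat brain synaptosomes (P2 fraction) used for 5-HT reuptake. Test compound at 10 μM, activity given as % inhibition.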

T1 sequence (P35372 whole entry): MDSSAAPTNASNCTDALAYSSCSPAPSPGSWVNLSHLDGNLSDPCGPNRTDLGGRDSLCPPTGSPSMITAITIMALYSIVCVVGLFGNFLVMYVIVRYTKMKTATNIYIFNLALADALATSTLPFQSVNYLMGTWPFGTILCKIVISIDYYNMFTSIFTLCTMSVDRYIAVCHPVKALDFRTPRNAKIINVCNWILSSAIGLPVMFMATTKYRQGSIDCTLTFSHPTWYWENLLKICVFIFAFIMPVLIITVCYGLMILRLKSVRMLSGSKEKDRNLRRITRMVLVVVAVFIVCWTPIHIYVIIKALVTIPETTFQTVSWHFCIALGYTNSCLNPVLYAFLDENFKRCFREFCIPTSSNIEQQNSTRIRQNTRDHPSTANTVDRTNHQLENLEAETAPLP
T2 sequence (P31652 whole entry): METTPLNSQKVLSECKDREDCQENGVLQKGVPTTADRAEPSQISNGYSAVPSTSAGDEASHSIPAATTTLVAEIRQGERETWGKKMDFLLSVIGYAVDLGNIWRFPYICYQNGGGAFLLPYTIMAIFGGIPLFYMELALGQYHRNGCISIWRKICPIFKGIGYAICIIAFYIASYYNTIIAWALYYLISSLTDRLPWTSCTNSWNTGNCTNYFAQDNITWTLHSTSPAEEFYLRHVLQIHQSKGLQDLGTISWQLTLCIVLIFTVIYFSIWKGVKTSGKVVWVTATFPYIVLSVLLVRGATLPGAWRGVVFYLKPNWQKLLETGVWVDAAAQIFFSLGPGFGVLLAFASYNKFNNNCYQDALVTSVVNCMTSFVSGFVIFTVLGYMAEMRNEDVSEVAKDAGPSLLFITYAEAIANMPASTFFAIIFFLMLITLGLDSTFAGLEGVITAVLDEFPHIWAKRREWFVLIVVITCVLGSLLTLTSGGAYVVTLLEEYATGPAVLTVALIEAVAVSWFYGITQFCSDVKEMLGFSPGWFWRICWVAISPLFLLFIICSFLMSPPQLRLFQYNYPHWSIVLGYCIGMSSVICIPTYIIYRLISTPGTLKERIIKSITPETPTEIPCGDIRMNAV

| SMILES | μ (binding on the μ opioid receptor, % inhibition) (human μ opiate receptor) [%] | 5-HT (inhibition of reuptake of serotonin, % inhibition) [1] [%] |
| --- | --- | --- |
| COc1ccc(S(=O)(=O)N(C)CCOCC(=O)NCCC2CCC(C(c3ccc(F)cc3)N(C)C)CC2)cc1 (centres unmarked) [Example 519] | 39 | 88 |
| COc1cc(C)c(S(=O)(=O)N(CCOCC(=O)NC2CCC(C(c3ccc(F)cc3)N(C)C)CC2)Cc2ccccc2)c(C)c1 (centres unmarked) [Example 504] | 43 | 89 |
| CN(C)C(c1ccc(F)cc1)C1CCC(CCNC(=O)COC2CCN(S(=O)(=O)c3cccc(C(F)(F)F)c3)C2)CC1 (centres unmarked) [Example 466] | 30 | 89 |
| COc1ccc(S(=O)(=O)N(C)CCOCC(=O)NCCC2CCC(C(c3ccc(Cl)cc3)N(C)C)CC2)cc1 (centres unmarked) [Example 460] | 52 | 86 |
| COc1ccc(S(=O)(=O)N(C)CCOCC(=O)NCCC2CCC(C(c3ccc(F)cc3)N(C)C)CC2)cc1OC (centres unmarked) [Example 484] | 35 | 96 |
| CN(C)C(c1ccc(F)cc1)C1CCC(NC(=O)COCCN2CCN(S(=O)(=O)c3ccccc3)CC2)CC1 (centres unmarked) [Example 502] | 33 | 97 |
| CN(C)C(CCc1ccccc1)C1CCC(CNC(=O)COCCN(C)S(=O)(=O)c2ccc(Cl)cc2Cl)CC1 (centres unmarked) [Example 513] | 38 | 89 |
| Cc1ccc(S(=O)(=O)N2CCC(OCC(=O)NCC3CCC(C(CCc4ccccc4)N(C)C)CC3)C2)cc1 (centres unmarked) [Example 538] | 25 | 91 |
| COc1cc(C)c(S(=O)(=O)N(CCOCC(=O)NCC2CCC(C(c3ccc(F)cc3)N(C)C)CC2)Cc2ccccc2)c(C)c1 (centres unmarked) [Example 494] | 42 | 89 |
| COc1cc(C)c(S(=O)(=O)N2CCN(CCOCC(=O)NCC3CCC(C(CCc4ccccc4)N(C)C)CC3)CC2)c(C)c1C (centres unmarked) [Example 528] | 34 | 94 |
| CN(C)C(CCc1ccccc1)C1CCC(CNC(=O)COCCN(Cc2ccccc2)S(=O)(=O)c2ccccc2)CC1 (centres unmarked) [Example 533] | 28 | 93 |
| COc1cc(C)c(S(=O)(=O)N2CCC(OCC(=O)NCCC3CCC(C(c4ccc(F)cc4)N(C)C)CC3)C2)c(C)c1C (centres unmarked) [Example 467] | 40 | 95 |
| CN(C)C(c1ccc(F)cc1)C1CCC(CCNC(=O)COCCN(Cc2ccccc2)S(=O)(=O)c2ccccc2)CC1 (centres unmarked) [Example 489] | 35 | 97 |
| CN(C)C(CCc1ccccc1)C1CCC(CNC(=O)COCCN(C)S(=O)(=O)c2ccc(F)cc2)CC1 (centres unmarked) [Example 539] | 32 | 102 |
| CN(C)C(c1ccc(F)cc1)C1CCC(CCNC(=O)COC2CCN(S(=O)(=O)c3ccccc3)C2)CC1 (centres unmarked) [Example 530] | 26 | 89 |
| CN(C)C(c1ccc(F)cc1)C1CCC(CCNC(=O)COCCN(C)S(=O)(=O)c2ccc(F)cc2)CC1 (centres unmarked) [Example 487] | 37 | 101 |
| CN(C)C(c1ccc(F)cc1)C1CCC(NC(=O)COCC2CCCN(S(=O)(=O)c3ccccc3)C2)CC1 (centres unmarked) [Example 478] | 40 | 97 |
| COc1cc(C)c(S(=O)(=O)N2CCC(OCC(=O)NCCC3CCC(C(c4ccc(F)cc4)N(C)C)CC3)C2)c(C)c1 (centres unmarked) [Example 509] | 43 | 97 |
| Cc1cc(C)c(S(=O)(=O)N(C)CCOCC(=O)NC2CCC(C(c3ccc(F)cc3)N(C)C)CC2)c(C)c1 (centres unmarked) [Example 490] | 42 | 86 |

| SMILES | μ (binding on the μ opioid receptor, % inhibition) (human μ opiate receptor) [%] | 5-HT (inhibition of reuptake of serotonin, % inhibition) [1] [%] |
| --- | --- | --- |
| COc1ccc(S(=O)(=O)N2CCC(OCC(=O)NCC3CCC(C(c4ccc(F)cc4)N(C)C)CC3)C2)cc1OC (centres unmarked) [Example 497] | 37 | 86 |
| Cc1ccc(S(=O)(=O)N2CCC(OCC(=O)NCCC3CCC(C(c4ccc(F)cc4)N(C)C)CC3)C2)cc1 (centres unmarked) [Example 491] | 34 | 90 |
| COc1cc(C)c(S(=O)(=O)N2CCC(OCC(=O)NCC3CCC(C(c4ccc(Cl)cc4)N(C)C)CC3)CC2)c(C)c1C (centres unmarked) [Example 498] | 36 | 88 |
| CN(C)C(c1ccc(F)cc1)C1CCC(CNC(=O)COC2CCCN(S(=O)(=O)c3ccccc3)C2)CC1 (centres unmarked) [Example 488] | 40 | 94 |
| Cc1cc(C)c(S(=O)(=O)N2CCC(OCC(=O)NCC3CCC(C(CCc4ccccc4)N(C)C)CC3)C2)c(C)c1 (centres unmarked) [Example 475] | 48 | 87 |
| COc1cc(C)c(S(=O)(=O)N2CCC(OCC(=O)NCCC3CCC(C(c4ccc(Cl)cc4)N(C)C)CC3)C2)c(C)c1 (centres unmarked) [Example 492] | 44 | 97 |
| CN(C)C(c1ccccc1)C1CCC(CNC(=O)COCCC2CCN(S(=O)(=O)c3ccccc3)CC2)CC1 (centres unmarked) [Example 507] | 32 | 75 |
| Cc1cc(C)c(S(=O)(=O)N2CCC(OCC(=O)NCCC3CCC(C(c4ccc(Cl)cc4)N(C)C)CC3)C2)c(C)c1 (centres unmarked) [Example 506] | 42 | 86 |
| CN(C)C(c1ccc(F)cc1)C1CCC(CCNC(=O)COCCN2CCN(S(=O)(=O)c3ccccc3)CC2)CC1 (centres unmarked) [Example 493] | 34 | 96 |
| Cc1ccc(S(=O)(=O)N(C)CCOCC(=O)NCCC2CCC(C(c3ccc(F)cc3)N(C)C)CC2)cc1 (centres unmarked) [Example 457] | 47 | 90 |
| CN(C)C(c1ccc(F)cc1)C1CCC(CCNC(=O)COC2CCCN(S(=O)(=O)c3ccccc3)C2)CC1 (centres unmarked) [Example 520] | 31 | 97 |
| COc1cc(C)c(S(=O)(=O)N(CCOCC(=O)NCC2CCC(C(CCc3ccccc3)N(C)C)CC2)Cc2ccccc2)c(C)c1 (centres unmarked) [Example 542] | 33 | 87 |
| CN(C)C(c1ccc(F)cc1)C1CCC(CNC(=O)COC2CCN(S(=O)(=O)c3ccc(Cl)cc3)C2)CC1 (centres unmarked) [Example 517] | 40 | 86 |
| COc1cc(C)c(S(=O)(=O)N2CCC(OCC(=O)NCC3CCC(C(c4ccc(F)cc4)N(C)C)CC3)C2)c(C)c1 (centres unmarked) [Example 541] | 34 | 95 |
| Cc1ccc(S(=O)(=O)N(C)CCOCC(=O)NCC2CCC(C(CCc3ccccc3)N(C)C)CC2)cc1 (centres unmarked) [Example 452] | 46 | 88 |
| COc1cc(C)c(S(=O)(=O)N2CCC(CCOCC(=O)NCCC3CCC(C(c4ccc(F)cc4)N(C)C)CC3)CC2)c(C)c1C (centres unmarked) [Example 510] | 33 | 99 |
| COc1cc(C)c(S(=O)(=O)N2CCC(OCC(=O)NCC3CCC(C(c4ccc(F)cc4)N(C)C)CC3)CC2)c(C)c1C (centres unmarked) [Example 527] | 38 | 96 |
| COc1cc(C)c(S(=O)(=O)N(C)CCOCC(=O)NCC2CCC(C(CCc3ccccc3)N(C)C)CC2)c(C)c1 (centres unmarked) [Example 525] | 31 | 84 |
